Earlier results in patent publication US20220378880A1, “PHARMACEUTICAL COMPOSITIONS OF GHRH ANALOGS AND USES THEREOF” (Theratechnologies Inc., priority 2019, published 2022).

[1] = healthy subjects, single SC 2 mg dose

Compound: CC/C=C/CC(=O)N[C@@H](Cc1ccc(O)cc1)C(=O)N[C@@H](C)C(=O)N[C@@H](CC(=O)O)C(=O)N[C@@H](C)C(=O)N[C@H](C(=O)N[C@@H](Cc1ccccc1)C(=O)N[C@H](C(=O)N[C@@H](CC(N)=O)C(=O)N[C@@H](CO)C(=O)N[C@@H](Cc1ccc(O)cc1)C(=O)N[C@@H](CCCNC(=N)N)C(=O)N[C@@H](CCCCN)C(=O)N[C@H](C(=O)N[C@@H](CC(C)C)C(=O)NCC(=O)N[C@@H](CCC(N)=O)C(=O)N[C@@H](CC(C)C)C(=O)N[C@@H](CO)C(=O)N[C@@H](C)C(=O)N[C@@H](CCCNC(=N)N)C(=O)N[C@@H](CCCCN)C(=O)N[C@@H](CC(C)C)C(=O)N[C@@H](CC(C)C)C(=O)N[C@@H](CCC(N)=O)C(=O)N[C@@H](CC(=O)O)C(=O)N[C@H](C(=O)N[C@@H](CCSC)C(=O)N[C@@H](CO)C(=O)N[C@@H](CCCNC(=N)N)C(=O)N[C@@H](CCC(N)=O)C(=O)N[C@@H](CCC(N)=O)C(=O)NCC(=O)N[C@@H](CCC(=O)O)C(=O)N[C@@H](CO)C(=O)N[C@@H](CC(N)=O)C(=O)N[C@@H](CCC(N)=O)C(=O)N[C@@H](CCC(=O)O)C(=O)N[C@@H](CCCNC(=N)N)C(=O)NCC(=O)N[C@@H](C)C(=O)N[C@@H](CCCNC(=N)N)C(=O)N[C@@H](C)C(=O)N[C@@H](CCCNC(=N)N)C(=O)N[C@@H](CC(C)C)C(N)=O)[C@@H](C)CC)C(C)C)[C@@H](C)O)[C@@H](C)CC [tesamorelin, trans-3-hexenoyl-GHRH(1-44)-NH2]
- Absolute bioavailability (healthy adult subjects, SC 2 mg dose): less than 4%
- Extent of absorption, mean (CV) [1]: 634.6 (72.4) pg·h/mL
- Peak tesamorelin concentration (Cmax), mean (CV) [1]: 2874.6 (43.9) pg/mL
- Thalf (expected) (single SC 2 mg dose): 0.4 h
- Tmax (expected) (single SC 2 mg dose, median): 9 min
